# Values joined by “and” are separate entries in the source; they are usually repeats but may differ in a detail not shown here. Equal values may be shown once. Inconclusive results and toxic doses are left out.
# Tested on: CD2F1 mice, L1210 leukemia ip, survival T/C
# Assay: NCI In Vivo Anticancer Drug Screen. Data for tumor model L1210 Leukemia (intraperitoneal) in CD2F1 (CDF1) mice
# Details: higher = longer survival
# Summary of the method: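 Tumor-bearing mice (transplanted tumor) were split into treated and vehicle control groups, and the measured endpoint of each treated group was divided by that of its vehicle controls.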
# [1] = endpoint: mean survival time, dose: 12.5 mg/kg/injection, schedule: Q01DX009 (ip), vehicle: saline with Tween-80
# [2] = endpoint: mean survival time, dose: 100.0 mg/kg/injection, schedule: Q04DX002 (ip), vehicle: saline with Tween-80
# [3] = endpoint: mean survival time, dose: 100.0 mg/kg/injection, schedule: Q04DX003 (ip), vehicle: saline with Tween-80
# [4] = endpoint: mean survival time, dose: 200.0 mg/kg/injection, schedule: Q04DX003 (ip), vehicle: saline with Tween-80
# [5] = endpoint: mean survival time, dose: 400.0 mg/kg/injection, schedule: Q01DX009 (ip), vehicle: saline with Tween-80
# [6] = endpoint: mean survival time, dose: 400.0 mg/kg/injection, schedule: Q04DX002 (ip), vehicle: saline with Tween-80
# [7] = endpoint: mean survival time, dose: 400.0 mg/kg/injection, schedule: Q04DX003 (ip), vehicle: saline with Tween-80
# [8] = endpoint: mean survival time, dose: 100.0 mg/kg/injection, schedule: Q01DX009 (ip), vehicle: saline with Tween-80
# [9] = endpoint: mean survival time, dose: 200.0 mg/kg/injection, schedule: Q01DX009 (ip), vehicle: saline with Tween-80
# [10] = endpoint: mean survival time, dose: 25.0 mg/kg/injection, schedule: Q01DX009 (ip), vehicle: saline with Tween-80
# [11] = endpoint: mean survival time, dose: 50.0 mg/kg/injection, schedule: Q01DX009 (ip), vehicle: saline with Tween-80
# [12] = endpoint: mean survival time, dose: 100.0 mg/kg/injection, schedule: Q01DX001 (ip), vehicle: saline
# [13] = endpoint: mean survival time, dose: 50.0 mg/kg/injection, schedule: Q04DX003 (ip), vehicle: saline
structure (smiles),measurement,setting,value
Nc1nc(Cl)nc2c1ncn2C1CC(O)C(CO)O1 (stereo not drawn),T/C,"endpoint: median survival time, dose: 1.56 mg/kg/injection, schedule: Q01DX009 (ip), vehicle: Klucel (hydroxypropylcellulose) (HPC)",124 % of control
same,T/C,"endpoint: median survival time, dose: 7.5 mg/kg/injection, schedule: Q03HX009 (ip), vehicle: saline",172 % of control
same,T/C,"endpoint: median survival time, dose: 7.5 mg/kg/injection, schedule: Q03HX009 (ip), vehicle: suspension in saline",107 % of control
same,T/C,"endpoint: median survival time, dose: 10.0 mg/kg/injection, schedule: Q03HX024 (ip), vehicle: saline",735 % of control
same,T/C,"endpoint: median survival time, dose: 12.5 mg/kg/injection, schedule: Q01DX009 (ip), vehicle: Klucel (hydroxypropylcellulose) (HPC)",180 % of control
same,T/C,"endpoint: median survival time, dose: 15.0 mg/kg/injection, schedule: Q03HX009 (ip), vehicle: saline",168 % of control
same,T/C,"endpoint: median survival time, dose: 15.0 mg/kg/injection, schedule: Q03HX009 (ip), vehicle: suspension in saline",100 % of control
same,T/C,"endpoint: median survival time, dose: 15.0 mg/kg/injection, schedule: Q03HX024 (ip), vehicle: saline",345 % of control
same,T/C,"endpoint: median survival time, dose: 20.0 mg/kg/injection, schedule: Q03HX024 (ip), vehicle: saline",735 % of control
same,T/C,"endpoint: median survival time, dose: 25.0 mg/kg/injection, schedule: Q01DX009 (ip), vehicle: Klucel (hydroxypropylcellulose) (HPC)",192 % of control
same,T/C,"endpoint: median survival time, dose: 30.0 mg/kg/injection, schedule: Q03HX009 (ip), vehicle: saline",208 % of control
same,T/C,"endpoint: median survival time, dose: 30.0 mg/kg/injection, schedule: Q03HX009 (ip), vehicle: suspension in saline",109 % of control
same,T/C,"endpoint: median survival time, dose: 60.0 mg/kg/injection, schedule: Q03HX009 (ip), vehicle: saline",204 % of control
same,T/C,"endpoint: median survival time, dose: 60.0 mg/kg/injection, schedule: Q03HX009 (ip), vehicle: suspension in saline",109 % of control
same,T/C,"endpoint: median survival time, dose: 120.0 mg/kg/injection, schedule: Q03HX009 (ip), vehicle: suspension in saline",113 % of control
CCOc1ccc(NC(=S)NC(=O)/C=C/c2ccccc2)cc1,T/C,[1],93 % of control and 96 % of control
same,T/C,"endpoint: mean survival time, dose: 100.0 mg/kg/injection, schedule: Q01DX001 (ip), vehicle: saline with Tween-80",95 % of control
same,T/C,[2],95 % of control and 98 % of control
same,T/C,[3],93 % of control
same,T/C,"endpoint: mean survival time, dose: 200.0 mg/kg/injection, schedule: Q01DX001 (ip), vehicle: saline with Tween-80",100 % of control
same,T/C,"endpoint: mean survival time, dose: 200.0 mg/kg/injection, schedule: Q04DX002 (ip), vehicle: saline with Tween-80",94 % of control and 97 % of control
same,T/C,[4],96 % of control
same,T/C,"endpoint: mean survival time, dose: 400.0 mg/kg/injection, schedule: Q01DX001 (ip), vehicle: saline with Tween-80",93 % of control
same,T/C,[5],108 % of control and 111 % of control
same,T/C,[6],94 % of control and 101 % of control
same,T/C,[7],96 % of control
NC(=O)Cc1c[nH]c2cc(O)ccc12,T/C,[8],93 % of control
same,T/C,[3],97 % of control
same,T/C,[9],95 % of control
same,T/C,[4],97 % of control
same,T/C,[5],100 % of control
same,T/C,[7],95 % of control
N#Cc1cn(C2OC(CO)C3OC32)c2ncnc(NC(=O)c3ccccc3)c12 (stereo not drawn),T/C,"endpoint: mean survival time, dose: 25.0 mg/kg/injection, schedule: Q01DX005 (ip), vehicle: distilled water + Tween-80",103 % of control
same,T/C,"endpoint: mean survival time, dose: 50.0 mg/kg/injection, schedule: Q01DX005 (ip), vehicle: distilled water + Tween-80",104 % of control
same,T/C,"endpoint: mean survival time, dose: 100.0 mg/kg/injection, schedule: Q01DX005 (ip), vehicle: distilled water + Tween-80",114 % of control
same,T/C,"endpoint: mean survival time, dose: 200.0 mg/kg/injection, schedule: Q01DX005 (ip), vehicle: distilled water + Tween-80",110 % of control
CCOC(=O)c1ccc(NC(=O)Nc2nccs2)cc1,T/C,"endpoint: mean survival time, dose: 6.25 mg/kg/injection, schedule: Q01DX009 (ip), vehicle: Klucel (hydroxypropylcellulose) (HPC)",101 % of control
same,T/C,"endpoint: mean survival time, dose: 6.25 mg/kg/injection, schedule: Q01DX009 (oral), vehicle: Klucel (hydroxypropylcellulose) (HPC)",101 % of control
same,T/C,"endpoint: mean survival time, dose: 12.5 mg/kg/injection, schedule: Q01DX009 (ip), vehicle: Klucel (hydroxypropylcellulose) (HPC)",100 % of control
same,T/C,[1],108 % of control
same,T/C,"endpoint: mean survival time, dose: 12.5 mg/kg/injection, schedule: Q01DX009 (oral), vehicle: Klucel (hydroxypropylcellulose) (HPC)",100 % of control
same,T/C,"endpoint: mean survival time, dose: 12.5 mg/kg/injection, schedule: Q01DX009 (oral), vehicle: saline with Tween-80",103 % of control
same,T/C,"endpoint: mean survival time, dose: 25.0 mg/kg/injection, schedule: Q01DX009 (ip), vehicle: Klucel (hydroxypropylcellulose) (HPC)",97 % of control
same,T/C,[10],110 % of control
same,T/C,"endpoint: mean survival time, dose: 25.0 mg/kg/injection, schedule: Q01DX009 (oral), vehicle: Klucel (hydroxypropylcellulose) (HPC)",100 % of control
same,T/C,"endpoint: mean survival time, dose: 25.0 mg/kg/injection, schedule: Q01DX009 (oral), vehicle: saline with Tween-80",97 % of control
same,T/C,"endpoint: mean survival time, dose: 50.0 mg/kg/injection, schedule: Q01DX009 (ip), vehicle: Klucel (hydroxypropylcellulose) (HPC)",97 % of control
same,T/C,[11],114 % of control and 122 % of control
same,T/C,"endpoint: mean survival time, dose: 50.0 mg/kg/injection, schedule: Q01DX009 (oral), vehicle: Klucel (hydroxypropylcellulose) (HPC)",105 % of control
same,T/C,"endpoint: mean survival time, dose: 50.0 mg/kg/injection, schedule: Q01DX009 (oral), vehicle: saline with Tween-80",100 % of control
same,T/C,"endpoint: mean survival time, dose: 100.0 mg/kg/injection, schedule: Q01DX009 (ip), vehicle: Klucel (hydroxypropylcellulose) (HPC)",105 % of control
same,T/C,[8],121 % of control and 110 % of control
same,T/C,"endpoint: mean survival time, dose: 100.0 mg/kg/injection, schedule: Q01DX009 (oral), vehicle: Klucel (hydroxypropylcellulose) (HPC)",95 % of control
same,T/C,"endpoint: mean survival time, dose: 100.0 mg/kg/injection, schedule: Q01DX009 (oral), vehicle: saline with Tween-80",101 % of control
same,T/C,"endpoint: mean survival time, dose: 200.0 mg/kg/injection, schedule: Q01DX009 (ip), vehicle: Klucel (hydroxypropylcellulose) (HPC)",110 % of control
same,T/C,[9],106 % of control
same,T/C,"endpoint: mean survival time, dose: 200.0 mg/kg/injection, schedule: Q01DX009 (oral), vehicle: Klucel (hydroxypropylcellulose) (HPC)",100 % of control
same,T/C,"endpoint: mean survival time, dose: 200.0 mg/kg/injection, schedule: Q01DX009 (oral), vehicle: saline with Tween-80",95 % of control
same,T/C,[5],121 % of control
same,T/C,"endpoint: mean survival time, dose: 400.0 mg/kg/injection, schedule: Q01DX009 (oral), vehicle: saline with Tween-80",97 % of control
CCCCN(CCCC)CCCC,T/C,[12],93 % of control
O=[N+]([O-])c1ccc(/C=C/C=C/c2ccc(Cl)cc2Cl)cc1,T/C,[3],97 % of control
same,T/C,[4],104 % of control
same,T/C,[7],98 % of control
CC1(C)CCOC1=O,T/C,[12],105 % of control
same,T/C,"endpoint: mean survival time, dose: 200.0 mg/kg/injection, schedule: Q01DX001 (ip), vehicle: saline",103 % of control
same,T/C,"endpoint: mean survival time, dose: 400.0 mg/kg/injection, schedule: Q01DX001 (ip), vehicle: saline",103 % of control
O=C(O)C(S)C(S)C(=O)O.[As] (stereo not drawn),T/C,"endpoint: mean survival time, dose: 25.0 mg/kg/injection, schedule: Q04DX003 (ip), vehicle: saline",95 % of control
same,T/C,"endpoint: mean survival time, dose: 50.0 mg/kg/injection, schedule: Q01DX001 (ip), vehicle: saline",89 % of control
same,T/C,[13],92 % of control
same,T/C,[12],100 % of control
same,T/C,"endpoint: mean survival time, dose: 100.0 mg/kg/injection, schedule: Q04DX003 (ip), vehicle: saline",100 % of control
CCN(CC)CCCC(C)N (stereo not drawn),T/C,[13],101 % of control
[Br][Pt+2][Br].[NH-]C1CCCCC1[NH-] (stereo not drawn),T/C,"endpoint: mean survival time, dose: 0.78 mg/kg/injection, schedule: Q04DX003 (ip), vehicle: saline with Tween-80",110 % of control
same,T/C,"endpoint: mean survival time, dose: 1.56 mg/kg/injection, schedule: Q04DX003 (ip), vehicle: saline with Tween-80",113 % of control
C=C(NC(C)=O)C(=O)CCC(N)=O,T/C,"endpoint: mean survival time, dose: 5.0 mg/kg/injection, schedule: Q01DX009 (ip), vehicle: saline",101 % of control
same,T/C,"endpoint: mean survival time, dose: 10.0 mg/kg/injection, schedule: Q01DX009 (ip), vehicle: saline",95 % of control
same,T/C,"endpoint: mean survival time, dose: 10.0 mg/kg/injection, schedule: Q04DX003 (ip), vehicle: saline",93 % of control
same,T/C,"endpoint: mean survival time, dose: 20.0 mg/kg/injection, schedule: Q01DX009 (ip), vehicle: saline",98 % of control
same,T/C,"endpoint: mean survival time, dose: 20.0 mg/kg/injection, schedule: Q04DX003 (ip), vehicle: saline",97 % of control
Cc1cc2c(cc1C)[n+]([O-])c1c(=O)[nH]c(=O)[nH]c1[n+]2[O-],T/C,"endpoint: mean survival time, dose: 25.0 mg/kg/injection, schedule: Q04DX002 (ip), vehicle: saline with Tween-80",98 % of control
same,T/C,"endpoint: mean survival time, dose: 50.0 mg/kg/injection, schedule: Q04DX002 (ip), vehicle: saline with Tween-80",102 % of control
CN(C)C(=S)Oc1ccc(S(=O)(=O)F)c(Cl)c1Cl,T/C,[2],87 % of control
same,T/C,[6],87 % of control
Nc1ccccc1N,T/C,[10],95 % of control
same,T/C,[9],93 % of control
C=C1C(=O)O[C@@H]2C[C@@]3(C)CCC[C@H](C)C3=C[C@H]12,T/C,"endpoint: mean survival time, dose: 100.0 mg/kg/injection, schedule: Q01DX009 (ip), vehicle: saline",98 % of control
same,T/C,"endpoint: mean survival time, dose: 200.0 mg/kg/injection, schedule: Q01DX009 (ip), vehicle: saline",101 % of control
CC1(C)C2CC=C(CCOC(=S)S)C1C2.[Ni] (stereo not drawn),T/C,[10],96 % of control
same,T/C,[11],90 % of control
same,T/C,[8],96 % of control
same,T/C,[3],91 % of control
same,T/C,[4],93 % of control
